Measured values published in US12459918B2, “Isoquinolinone derivatives serving as rock protein kinase inhibitors and use thereof” (GUANGZHOU OCUSUN OPHTHALMIC BIOTECHNOLOGY CO., LTD., priority 2019, dated 2025).
Blank lines part the entries; values can stand above or below the compound they belong to.

Key:
Format in all cases: in vivo
[1] = tested on: New Zealand rabbits with normal intraocular pressure; assay: Ocular stimulation response examination by hand-held slit lamp, 14 days eye-drop administration; conditions: 14 consecutive days, 50 μL/eye/day
Protocol: 42 male New Zealand rabbits were randomly divided into 7 groups, with 6 rabbits per group. Animals were randomly divided according to body weight Animals in 1-7 groups were eye-dropped with normal saline in the left eye and with solvent/control sample/test sample in the right eye respectively by a volume of 50 μL/eye, once per day for 14 consecutive days, and the day of administration was recorded as Day 1. The intraocular pressure of the animals was measured before Day 1 administration and in 1, 2, 4, 6, 8 and 10 hours after Day 1 administration, respectively (Table 8).
Before the experiment (Day 2/Day 1), before daily administration during the administration (Days 1-14), and in 1, 2, 4, 24, 48 and 72 hours after the last administration (Day 14), the eyes of animals were examined for ocular stimulation response and fluorescein sodium by a hand-held slit lamp (scoring by referring to the scoring criteria).
Before the experiment (Day 2/Day 1), before the first daily administration (Days 1-14) during the administration, and in 1, 2, 4, 24, 48 and 72 hours after the last administration, the eyes of animals were examined for ocular stimulation response by a hand-held slit lamp. The scoring criteria were as follows. […]

[2] = tested on: New Zealand rabbits with normal intraocular pressure; assay: Intraocular pressure reduction experiment in New Zealand rabbits with normal intraocular pressure; conditions: for Intraocular pressure in the left eye: 20 mg/mL group, left eye (saline or solvent); for Intraocular pressure in the right eye: 20 mg/mL in right eye; for Reduction magnitude of intraocular pressure: 20 mg/mL, left minus right eye
Excerpt: Experimental Example 2. Intraocular Pressure Reduction Experiment in New Zealand Rabbits with Normal Intraocular Pressure
Rabbits with normal intraocular pressure were adopted to screen intraocular pressure reduction actions of the potential compounds by eye-drop administration.
Male New Zealand rabbits, aged 97-127 days, weighted 2.65-3.5 kg, purchased from PizhouDongfang Breeding Co. Ltd.
The male New Zealand rabbits were randomly divided into 8 rabbits/per group using a computer-generated randomization method Animals in each group were eye-dropped with different test samples in the right eye, and normal saline or solvent in the left eye, and the volume of the administration was both 50 μL/eye. The intraocular pressure of the animals was measured before administration and in 1, 2, 4, 6, 8 and 10 hours after the administration, respectively.

[3] = tested on: New Zealand rabbits with acute ocular hypertension; assay: Intraocular pressure reduction experiment in New Zealand rabbits with acute ocular hypertension, experiment operation 1; conditions: 10 mg/mL both eyes; for Intraocular pressure in the left eye: left eye (not modeled); for Intraocular pressure in the right eye: right eye (induced ocular hypertension)
Excerpt: Experimental Example 3. Intraocular Pressure Reduction Experiment in New Zealand Rabbits with Acute Ocular Hypertension
Acute ocular hypertension of rabbits were induced by anterior chamber injection of a viscoelastic agent and the intraocular pressure reduction action of compound 60 and compound 63 at different concentrations were explored by eye-drop administration.
Male New Zealand rabbits, aged 97-127 days, weighted 2.5-3.4 kg, purchased from PizhouDongfang Breeding Co. Ltd.
Male New Zealand rabbits were randomly divided into 8 rabbits/per group according to body weight using a computer-generated randomization method. The animals in each group were injected with medical sodium hyaluronate gel in the anterior chamber of right eye in a single dose, 100 μL/eye, to induce ocular hypertension. In 5-15 minutes, 3 hours and 6 hours after right eye modeling, both eyes were dropped with a solvent, K-115 or test samples (compound 60 at different concentrations) at a volume of 50 μL/eye and intraocular pressure of the animals was measured before administration and in 1, 2, 4, 6, 8 and 10 hours after administration, respectively.

- Evaluation of ocular stimulation ([1]; concentration range of 0.25-4 mg/mL): no stimulation
Structure (SMILES): Cc1ccc(C(=O)OCn2cc(C)c3c(S(=O)(=O)N4CC[C@H](N)C4)cccc3c2=O)c(C)c1 [Compound 63]

- Evaluation of ocular stimulation ([1]; 4 mg/mL): no stimulation
Structure (SMILES): C[C@H]1CNCCCN1S(=O)(=O)c1cccc2cncc(F)c12 [Compound K-115, reference compound]
- Intraocular pressure in the left eye ([2]; 1 hour after administration): 11.42 mmHg
- Intraocular pressure in the left eye ([2]; 2 hours after administration): 11.67 mmHg
- Intraocular pressure in the left eye ([2]; 4 hours after administration): 12.08 mmHg
- Intraocular pressure in the left eye ([2]; 6 hours after administration): 12.38 mmHg
- Intraocular pressure in the left eye ([2]; 8 hours after administration): 12.83 mmHg
- Intraocular pressure in the left eye ([2]; 10 hours after administration): 15.25 mmHg
- Intraocular pressure in the left eye ([2]; before administration): 12.29 mmHg
- Intraocular pressure in the right eye ([2]; 1 hour after administration): 7.54 mmHg
- Intraocular pressure in the right eye ([2]; 2 hours after administration): 8.63 mmHg
- Intraocular pressure in the right eye ([2]; 4 hours after administration): 10.83 mmHg
- Intraocular pressure in the right eye ([2]; 6 hours after administration): 11.83 mmHg
- Intraocular pressure in the right eye ([2]; 8 hours after administration): 12.63 mmHg
- Intraocular pressure in the right eye ([2]; 10 hours after administration): 14.92 mmHg
- Intraocular pressure in the right eye ([2]; before administration): 12.92 mmHg
- Reduction magnitude of intraocular pressure ([2]; 1 hour after administration): 3.88 mmHg
- Reduction magnitude of intraocular pressure ([2]; 2 hours after administration): 3.04 mmHg
- Reduction magnitude of intraocular pressure ([2]; 4 hours after administration): 1.25 mmHg
- Reduction magnitude of intraocular pressure ([2]; 6 hours after administration): 0.55 mmHg
- Reduction magnitude of intraocular pressure ([2]; 8 hours after administration): 0.2 mmHg
- Reduction magnitude of intraocular pressure ([2]; 10 hours after administration): 0.33 mmHg
- Reduction magnitude of intraocular pressure ([2]; before administration): −0.63 mmHg
- Intraocular pressure in the left eye ([3]; 1 hour after administration): 5.88 mmHg
- Intraocular pressure in the left eye ([3]; 2 hours after administration): 5.96 mmHg
- Intraocular pressure in the left eye ([3]; 4 hours after administration): 8.29 mmHg
- Intraocular pressure in the left eye ([3]; 6 hours after administration): 10.54 mmHg
- Intraocular pressure in the left eye ([3]; 8 hours after administration): 11.88 mmHg
- Intraocular pressure in the left eye ([3]; 10 hours after administration): 11.79 mmHg
- Intraocular pressure in the left eye ([3]; before administration): 11.79 mmHg
- Intraocular pressure in the right eye ([3]; 1 hour after administration): 28.79 mmHg
- Intraocular pressure in the right eye ([3]; 2 hours after administration): 22.67 mmHg
- Intraocular pressure in the right eye ([3]; 4 hours after administration): 26.08 mmHg
- Intraocular pressure in the right eye ([3]; 6 hours after administration): 23.25 mmHg
- Intraocular pressure in the right eye ([3]; 8 hours after administration): 23.25 mmHg
- Intraocular pressure in the right eye ([3]; 10 hours after administration): 11.92 mmHg
- Intraocular pressure in the right eye ([3]; before administration): 11.92 mmHg
